For one data set, the system named is Rpe65−/− mice. Briefly: Retinoid treatment in LCA mouse model with RPE65 deficiency. The format is in vivo. The text has this: (§1) We designed a polysaccharide therapeutic conjugate composition for the sustained release of 9-cis-retinyl esters to treat animal models of human retinal diseases, such as LCA. […] Unless initial high drug blood levels are unfavorable, this pharmacokinetic property could be beneficial because it relates to the therapeutic window, especially for drugs targeting peripheral tissues such as the retina through protein-mediated and protein-independent transport systems. A bolus dose could also establish a reversible depot of the drug in other tissues, thereby reducing the need for frequent dosing.

A short description of data set [1]: 9-cis-retinoid concentrations in plasma after gavage. The data set is classed as in vivo, mouse.
Text: as §1

Data set [2] deals with Lrat−/− mice. Description: Oral gavage of 9-cis-R-Ac in LCA mouse model with LRAT deficiency. The data set is classed as in vivo.
Text: as §1

Data set [3] concerns Lrat−/− mice. The note with it: dark room reared Lrat−/− mice; 6 gavages of 0.12 mg each over two weeks; vs untreated control Lrat−/− mice; cited from earlier work.

For `CC1=C(/C=C/C(C)=C\C=C\C(C)=C\C=O)C(C)(C)CCC1` [9-cis-retinal], the visual function result with Rpe65−/− mice (single dose, Rpe65−/− mice kept under laboratory lighting conditions) is on record as “rescued visual function for months”.

As for `CC(=O)OC/C=C(C)/C=C/C=C(C)\C=C\C1=C(C)CCCC1(C)C` [9-cis-R-Ac, 9-cis-retinyl acetate], the “9-cis-retinoid concentrations in plasma” value in data set [1] (5 hours after oral administration) is “dropped markedly to low levels”; in data set [1] (after gavage), “increased rapidly to high levels”. In addition, the retinal morphology result in the data set with Rpe65−/− mice (oral gavage, Rpe65−/− mice) is “preserves retinal morphology”; in the data set on Lrat−/− mice [2] it was “preserves retinal morphology”. For the same compound, the visual function result in the data set on Rpe65−/− mice (oral gavage, Rpe65−/− mice) was “improves visual function”; in the data set with Lrat−/− mice [2], “improves visual function”. The ROS layer thickness entry in the data set on Lrat−/− mice [3] is “substantially thicker”. Besides, the RPE-ROS interface entry with Lrat−/− mice [3] was “closer apposition”.
